{"source": "patent US20220088020A1", "about": "“TREATMENT OF ALOPECIA AREATA” (LEO PHARMA A/S, priority 2015, published 2022)", "key": {"[1]": {"system": "C3H/HeJ mouse alopecia model", "assay": "Experiment 2: promotion of hair growth in C3H/HeJ mouse alopecia model", "assay_type": "in vivo", "settings": "Compound A ointment 0.3% or 3% by weight, 50 μL applied to dorsal region once a day for 84 days; median of each group, FIG. 2", "experimental": "(§1) An effect of promoting hair growth by Compound A was evaluated using a C3H/HeJ mouse alopecia model (Non-Patent Literature 1).\nA skin specimen having a diameter of 2 cm was prepared from a retired C3H/HeJJcI mouse (CLEA Japan, Inc.) which had spontaneously developed alopecia universalis, and was grafted into a dorsal region of each of eight-week-old female C3H/HeJJcI mice (CLEA Japan, Inc.). […]\nThe Hair Growth Index (HGI) in the dorsal region of each of the mice was determined on day 1, day 19, day 29, day 43, day 57, day 71 and day 85. The HGI for each of the mice was calculated by measuring, with naked eyes, the level of the state of hair growth (score; 0: no hair, 1: stubble, short broken hairs, 2: sparse intermediate length hairs, 3: normal length and density hairs) and the percentage (%) of the skin area in which each level of state of hair growth occurred, determining the product of the level of the state of hair growth (score) with the percentage (%) of the skin area in which its level of the state of hair growth occurred, and then summing all of the values of the products."}, "[2]": {"system": "C3H/HeJ mouse alopecia model", "assay": "Experiment 1: promotion of hair growth in C3H/HeJ mouse alopecia model", "assay_type": "in vivo", "settings": "Compound A 1% or 3% by weight in carrier, 50 μL applied to dorsal region once a day for 78 days; median of each group, FIG. 1", "experimental": "as §1\nA skin specimen having a diameter of 2 to 2.5 cm was prepared from a retired C3H/HeJJcI mouse (CLEA Japan, Inc.) which had spontaneously developed alopecia universalis, and was grafted into a dorsal region of each of eight-week-old female C3H/HeJJcI mice (CLEA Japan, Inc.). Twenty weeks after the surgery, mice which developed alopecia throughout the whole bodies thereof were selected, and a carrier, 1% by weight of a test substance, 3% by weight of the test substance or a control substance was applied to the dorsal region at a volume of 50 μL once a day for 78 days. Day 1 was a day on which the application started. The carrier used was a mixture which contained white soft paraffin, hard paraffin and squalane at a blend ratio of 85:5:10. Compound A was used as the test substance. A betamethasone valerate ointment (0.12%) was used as the control substance.\nThe Hair Growth Index (HGI) in the dorsal region of each of the mice was determined on day 1, day 7, day 15, day 29, day 43, day 57, day 71 and day 79. […]"}, "[3]": {"system": "JAK", "settings": "JAK = one or more of JAK1, JAK2, JAK3, TYK2; described in Patent Literature 1 and 2; cited from earlier work"}}}
{"smiles": "C[C@H]1CN(C(=O)CC#N)[C@]12CCN(c1ncnc3[nH]ccc13)C2", "note": "[Compound A, 3-[(3S,4R)-3-methyl-6-(7H-pyrrolo[2,3-d]pyrimidin-4-yl)-1,6-diazaspiro[3.4]octan-1-yl]-3-oxopropanenitrile]", "values": [{"measurement": "Hair Growth Index (HGI) in the dorsal region", "setting": "[1]", "value": "promotion of hair growth"}, {"measurement": "Hair Growth Index (HGI) in the dorsal region", "setting": "[2]", "value": "promotion of hair growth"}, {"measurement": "JAK inhibition", "setting": "[3]", "value": "inhibit JAK"}]}
